Data published in ChEMBL document CHEMBL6153171, “Redefining Antifungal Treatment: The Innovation of Metal-Based Compounds” (2025).
Values after ≈ are worked out from the molar mass of the structure shown.

What was measured:
Format in all cases: functional
[1] = test system: Candida tropicalis; assay: Antifungal activity against Candida tropicalis ATCC 1369 assessed as inhibition of fungal growth by CLSI protocol based microdilution method
[2] = test system: Candida tropicalis; assay: Anti-fungal activity against Candida tropicalis assessed as inhibition of fungal growth
[3] = test system: Trichophyton violaceum; assay: Antifungal activity against Trichophyton violaceum
[4] = test system: Epidermophyton floccosum; assay: Antifungal activity against Epidermophyton floccosum
[5] = test system: Nakaseomyces glabratus; assay: Antifungal activity against Candida glabrata assessed as reduction in fungal growth; set-up: concentration or dose not given beside the values
[6] = test system: Candida albicans; assay: Antifungal activity against Candida albicans ATCC 10231 assessed as growth inhibition measured after 48 hrs by CLSI based method
[7] = test system: Candida albicans; assay: Antifungal activity against Candida albicans ATCC 10231 assessed as fungal growth inhibition incubated for 24 hrs by CLSI protocol based microbroth dilution assay
[8] = test system: Trichophyton mentagrophytes; assay: Antifungal activity against Trichophyton mentagrophytes
[9] = test system: Trichophyton interdigitale; assay: Antifungal activity against Trichophyton interdigitale
[10] = test system: Trichophyton rubrum; assay: Antifungal activity against Trichophyton rubrum assessed as fungal growth inhibition incubated for 48 hrs by microplate reader assay
[11] = test system: Trichophyton tonsurans; assay: Antifungal activity against Trichophyton tonsurans
[12] = test system: Candida albicans; assay: Antifungal activity against Candida albicans assessed as reduction in microbial growth
[13] = test system: Candida albicans; assay: Antifungal activity against fluconazole-resistant Candida albicans MFBF 11100 assessed as inhibition of fungal growth incubated for 48 hrs by liquid medium dilution method
[14] = test system: Candida albicans; assay: Antifungal activity against fluconazole-resistant Candida albicans ATCC 10213 assessed as inhibition of fungal growth incubated for 48 hrs by liquid medium dilution method
[15] = Antifungal activity against Cryptococcus gattii VGI ATCC 14116 assessed as reduction in fungal growth incubated for 72 hrs by liquid based microdilution method
[16] = test system: Cryptococcus neoformans; assay: Antifungal activity against Cryptococcus neoformans ATCC 34877 assessed as reduction in fungal growth incubated for 72 hrs by liquid based microdilution method
[17] = Antifungal activity against Cryptococcus gattii VGI ATCC LMM 818 assessed as reduction in fungal growth incubated for 72 hrs by liquid based microdilution method
[18] = test system: Cryptococcus neoformans; assay: Antifungal activity against Cryptococcus neoformans H99 assessed as reduction in fungal growth incubated for 48 hrs by liquid based microdilution method
[19] = test system: Cryptococcus neoformans; assay: Antifungal activity against Cryptococcus neoformans ATCC 34877 assessed as reduction in fungal growth incubated for 48 hrs by liquid based microdilution method
[20] = test system: Candida albicans; assay: Antifungal activity against Candida albicans assessed as fungal growth inhibition
[21] = test system: Aspergillus flavus; assay: Antifungal activity against Aspergillus flavus assessed as fungal growth inhibition
[22] = test system: Aspergillus flavus; assay: Antifungal activity against Aspergillus flavus assessed as reduction in fungal growth incubated for 24 hrs by two-fold serial dilution method; set-up: scale not given: the % may be the effect or the level left
[23] = test system: Candida albicans; assay: Antifungal activity against Candida albicans ATCC 2091 assessed as reduction in fungal growth
[24] = test system: Microsporum canis; assay: Antifungal activity against Microsporum canis assessed as inhibition of fungal growth; set-up: scale not given: the % may be the effect or the level left
[25] = test system: Candida albicans; assay: Antifungal activity against Candida albicans assessed as fungal growth inhibition at 5 ug/ml incubated for 24 hrs by CLSI protocol based microbroth dilution assay relative to control; set-up: scale not given: the % may be the effect or the level left; details: dose 5 µg/ml
[26] = test system: Aspergillus flavus; assay: Antifungal activity against Aspergillus flavus ATCC 16870 assessed as inhibition of growth incubated for 48 hrs by two-fold serial dilution method
[27] = test system: Candida albicans; assay: Antifungal activity against Candida albicans SC5314 assessed as reduction in fungal growth incubated for 72 hrs by broth micro-dilution method
[28] = test system: Candida albicans; assay: Antifungal activity against Candida albicans
[29] = test system: Aspergillus flavus; assay: Antifungal activity against Aspergillus flavus

With `Cc1ccc(-c2ccc(-c3ccccn3)nc2)cc1` the MIC [1] was ≤ 20.4 µM and the MIC [2] was ≤ 12.7 µM.
For `c1ccc(-c2ccc(-c3ccccn3)nc2)cc1`, the MIC [3] was 26.9 µM (≈ 6.25 µg/mL) and the MIC [4] was 26.9 µM (≈ 6.25 µg/mL).
Compound `Cc1ccc(S(=O)(=O)Nc2ncccn2)cc1` has an Activity [5] of 53%.
Work on `C/C(=N\NC(=S)Nc1ccc(I)cc1)c1ccccn1` yielded an MIC [6] of 10.7 µM (≈ 4.24 µg/mL) and an MIC [7] of 6.2 µM (≈ 2.46 µg/mL).
With `C/C(=N\NC(=S)Nc1ccc([N+](=O)[O-])cc1)c1ccccn1` the MIC [6] was 10.7 µM (≈ 3.37 µg/mL).
`NS(=O)(=O)c1ccc(/N=C/c2cc(Cl)ccc2O)cc1` showed an Activity [5] of 47%.
`O=C(O)c1c(O)c(F)c(F)c(F)c1F` gave an MIC [8] of 25 µg/mL (≈ 119 µM), an MIC [9] of 25 µg/mL (≈ 119 µM) and an MIC [10] of 25 µg/mL (≈ 119 µM). It also gave an MIC [11] of 25 µg/mL (≈ 119 µM).
`O=C(O)c1cc(F)c(F)c(F)c1O` showed an MIC [12] of 50 µg/mL.
In the case of `COc1ccc(/C=N/NC(=O)c2cccnc2)c(O)c1`, the IC90 [13] is reported as 100 nM and the IC90 [14] is reported as 180 nM.
For `NC(=S)N/N=C(\N)c1ccccn1`, the MIC90 [15] was 26.3 µM (≈ 5.13 µg/mL), the MIC90 [16] was 26.3 µM (≈ 5.13 µg/mL) and the MIC90 [17] was 52.5 µM (≈ 10.3 µg/mL). The MIC90 [18] was 13.1 µM (≈ 2.55 µg/mL).
For `CCNC(=S)N/N=C(\N)c1ccccn1`, the MIC90 [18] was 13.1 µM (≈ 2.92 µg/mL).
For `CNC(=S)N/N=C(\N)c1ccccn1`, the MIC90 [16] was 52 µM (≈ 10.9 µg/mL), the MIC90 [19] was 2.01 µM (≈ 0.42 µg/mL) and the MIC90 [17] was 52 µM (≈ 10.9 µg/mL).
`O=c1cc(O)c2c(=O)[nH]c3ccccc3c2o1` showed an MIC [20] of 233 µM (≈ 53.4 µg/mL) and an MIC [21] of 226 µM (≈ 51.7 µg/mL).
Compound `CCCN(CCC)C(=S)NC(=O)c1ccc(Br)o1` has an Activity [5] of 42% and an Activity [22] of 52%.
`O=C1N[C@@H](Cc2ccc(/N=C/c3ccccc3O)cc2)CO1` gave an MIC [23] of 12.5 µg/mL (≈ 42.2 µM).
`CCN(C(=S)NC(=O)c1ccc(Br)o1)C(C)C` gave an Activity [22] of 50%.
With `CCCN(CCC)C(=S)NC(=O)c1ccc(C)s1` the Activity [24] was 63%.
Compound `CNCCC/N=C/c1c(O)ccc2c(C)cc(=O)oc12` has an MIC [23] of 12.5 µg/mL (≈ 45.6 µM).
`CCCN(CCC)C(=S)NC(=O)c1cccs1` gave an Activity [25] of 50%.
`CCN(C(=S)NC(=O)c1cccs1)C(C)C` showed an Activity [25] of 53% and an Activity [5] of 43%.
In the case of `CCN(C(=S)NC(=O)c1ccc(C)s1)C(C)C`, the Activity [5] is reported as 62% and the Activity [22] is reported as 57%.
Work on `Oc1ccccc1/N=N/c1ccc(O)c2ccccc12` yielded an MIC [26] of 6.25 µg/mL (≈ 23.6 µM), an MIC [27] of 6.25 µg/mL (≈ 23.6 µM) and an MIC [28] of 50 µg/mL (≈ 189 µM). For the same compound, the MIC [29] was 6.25 µg/mL (≈ 23.6 µM).
`Oc1ccccc1/C=N/c1ccc(Cn2cncn2)cc1` gave an MIC [23] of 12.5 µg/mL (≈ 44.9 µM).
